{"source": "patent US8629100B2", "about": "“Method of inhibiting clostridium difficile by administration of oritavancin” (The Medicines Company, priority 2007, dated 2014)", "format_in_all_cases": "cell-based", "key": {"[1]": {"tested_on": "C. difficile vegetative cultures and spores", "test": "Spiral gradient endpoint analysis MIC", "settings": "data not shown", "experimental": "C. difficile PCR ribotypes 001, 106 and 027 were inoculated onto Columbia blood agar and incubated anaerobically (37° C.) for 10 d. Growth was harvested into sterile saline and alcohol shocked in an equal volume of 100% ethanol for 1 h. Alcohol-shocked spore suspensions were mixed by vortexing and sonicated for 5 minutes at room temperature. C. difficile phase-bright (non-germinated) spores were separated from phase-dark (germinated) spores and cellular debris by density gradient centrifugation (4000 rpm 15 minutes) following layering onto 50% (v/v in phosphate buffered saline) Urografin 370 (Schering, Germany). The density gradient centrifugation step was performed twice. Pellets of purified spores were re-suspended in sterile saline (1 mL per 10 Columbia blood agar plates harvested). Percentage phase-bright spores, phase-dark spores and vegetative cells were recorded using phase-contrast microscopy (×100 magnification).\nA spiral plater (WASP2, Don Whitley Scientific, UK) was used to apply a logarithmic antibiotic gradient onto the surface of pre-dried (37° C. 20 minutes) Brazier's agar (pH 7). Agar with logarithmic antimicrobial gradients applied to their surface remained at room temperature for 1 h to allow the antimicrobial agent to adsorb into the agar. C. difficile vegetative cultures and spores (˜10^7 cfu/mL) were inoculated onto the agar surface (FIG. 1) with a sterile cotton swab and incubated anaerobically (37° C., 24 h). D-values were measured (in mm) and converted to MICs (Paton, J. H.1990. Int J Exp Clin Chemother. 9, 31-38)."}, "[2]": {"tested_on": "C. difficile PCR ribotype 027 spores", "test": "Phase-contrast microscopy of spore germination/outgrowth", "settings": "10 mg/L for 2 h, washed 3x in PBS", "experimental": "C. difficile spores were also exposed to 10 mg/L antimicrobial for 2 h, washed 3× in sterile PBS, re-suspended and inoculated into Brazier's broth medium (pH 7). Samples were removed at 2, 4, 6, 24, 32 and 48 h. Slides were viewed under phase-contrast microscopy and percentages of phase-bright spores, phase-dark spores and vegetative cells were recorded (FIG. 4).\nStatistical analyses were performed by transforming percentage data using an Arcsin Transformation and analysed using a Wilcoxon signed rank test. P<0.05 was considered statistically significant. Supra-MIC concentrations of all antimicrobials prevented outgrowth but not germination of C. difficile spores."}, "[3]": {"tested_on": "genotypically distinct C. difficile (n = 33)", "test": "Broth macrodilution MIC", "settings": "Clostridioides difficile, BM, broth macrodilution"}, "[4]": {"tested_on": "genotypically distinct C. difficile (n = 33)", "test": "Agar incorporation MIC", "settings": "for MIC90 / MIC range / MIC: AI; for MIC: read-out: GEO MIC", "source_text": "Thirty-three genotypically distinct (by PCR ribotyping) C. difficile isolates were selected from a library of strains at the Leeds General Infirmary (Leeds, UK). Representative isolates of epidemic C. difficile PCR ribotypes 001, 106 and 027 were included in the panel. Control isolates of Staphylococcus aureus ATCC 29213, Enterococcus faecalis ATCC 29212 and Bacteroides fragilis ATCC 25285 were included in all MIC determinations to ensure procedure accuracy.\nAgar incorporation MICs were determined based on the method of Freeman and Wilcox (J Antimicrob Chemother 2001; 47: 244-6). Briefly, bacteria were cultured in Schaedler's anaerobic broth (Oxoid, Basingstoke, UK) at 37° C. for 24 h in an anaerobic cabinet (Don Whitley Scientific, Shipley). […] Oritavancin was prepared in 0.002% P80. All antimicrobial solutions were sterilized by filtration through 0.22 um syringe filters. […] Wilkins Chalgren agar (Oxoid) incorporating doubling dilutions of antimicrobial agents (0.03-16 mg/L) was prepared with and without 0.002% P80 and with and without 2% lysed horse blood (E&O Labs, Bonneybridge, UK). All media and diluents were pre-reduced overnight in the anaerobic cabinet. Bacterial cultures were diluted in sterile saline and inoculated onto the surface of agar incorporation agar plates using a multipoint inoculator (˜10^4 cfu). Agar incorporation plates were incubated anaerobically for 48 h. MIC endpoints were read as the lowest concentration of antimicrobial agent where there is no apparent growth (disregarding a visible haze of growth or a single colony)."}, "[5]": {"tested_on": "C. difficile spores (PCR ribotypes 001, 106 and 027)", "test": "Viability (recovery) of spores after antibiotic exposure, cellulose acetate filtration (Examples 3A, 3B)", "experimental": "The experiments were in general performed by mixing C. difficile spores with an antibiotic, filtering the solution through cellulose acetate filters to collect the spores, applying the spore-containing filters to nutrient agar, and determining the number of spores remaining on the filters after a selected period of time.\nTherefore, the initial experiment included dilution of antimicrobial-containing spore suspensions prior to filtration and washing. Reaction volumes were 1 mL for all antimicrobial/control solutions.\n1 mL of control (de-ionised water+/−Tween-80) and test (antimicrobial containing) solutions were inoculated with 10 μL C. difficile spores (3 strains; PCR ribotypes 001, 106 and 027). Spore suspensions (time=1 min or 30 min) were transferred to filtration cupules and the appropriate volume of diluent (sterile de-ionised water+/−Tween-80) was added to achieve the dilution factors noted above. Samples were filtered onto cellulose acetate filters and washed with a further 50 mL of the appropriate diluent. Filters were transferred aseptically to Braziers CCEY agar containing 5 mg/L lysozyme and 2% lysed horse blood. This procedure was completed in duplicate. The culture media were incubated in an anaerobic atmosphere at 37° C. for 48 h and the numbers of C. difficile colonies were recorded.\nDiluent was first added to filtration cupules. 1 mL reactions were then added to the appropriate diluent (1 min and 30 min after reaction formation) and filtered onto cellulose acetate filters. The filters were washed with 50 mL of the appropriate diluent. The filters were then transferred aseptically to Braziers CCEY agar containing 5 mg/L lysozyme and 2% lysed horse blood. This procedure was completed in duplicate. Culture media were incubated in an anaerobic atmosphere at 37° C. for 48 h and the numbers of C. difficile colonies recorded"}}, "data": [{"smiles": "Cc1ncc([N+](=O)[O-])n1CCO", "note": "[metronidazole]", "values": [{"measurement": "MICs for C. difficile vegetative cells versus spores", "setting": "[1]", "result": "did not differ substantially"}, {"measurement": "Outgrowth of C. difficile spores prior-exposed to antimicrobial", "setting": "[2]", "result": "not observed"}, {"measurement": "MIC90", "setting": "[3]", "result": 2, "unit": "µg/mL"}, {"measurement": "MIC", "setting": "[3]; read-out: GEO MIC", "result": 0.56, "unit": "µg/mL"}, {"measurement": "MIC90", "setting": "[4]; P80 no LHB", "result": 2, "unit": "µg/mL"}, {"measurement": "MIC range", "setting": "[4]; P80 no LHB", "result": "0.25 to 2", "unit": "µg/mL"}, {"measurement": "MIC90", "setting": "[4]; no P80 no LHB", "result": 2, "unit": "µg/mL"}, {"measurement": "MIC range", "setting": "[4]; no P80 no LHB", "result": "0.25 to 4", "unit": "µg/mL"}, {"measurement": "MIC90", "setting": "[4]; no P80 with LHB", "result": 2, "unit": "µg/mL"}, {"measurement": "MIC range", "setting": "[4]; no P80 with LHB", "result": "0.5 to 4", "unit": "µg/mL"}, {"measurement": "MIC", "setting": "[4]; Clostridioides difficile, P80 no LHB", "result": 0.55, "unit": "µg/mL"}, {"measurement": "MIC", "setting": "[4]; Clostridioides difficile, P80 with LHB", "result": 0.55, "unit": "µg/mL"}, {"measurement": "MIC90", "setting": "[4]; Clostridioides difficile, P80 with LHB, read-out: MIC90", "result": 2, "unit": "µg/mL"}, {"measurement": "MIC", "setting": "[4]; Clostridioides difficile, no P80 no LHB", "result": 0.53, "unit": "µg/mL"}, {"measurement": "MIC", "setting": "[4]; Clostridioides difficile, no P80 with LHB", "result": 0.69, "unit": "µg/mL"}, {"measurement": "Agar incorporation geometric mean MICs lower than oritavancin MICs", "setting": "[4]; all agar conditions", "result": "2- to 5 fold"}, {"measurement": "Agar incorporation geometric mean MICs lower than vancomycin MICs", "setting": "[4]; all agar conditions", "result": "2- to 3 fold"}, {"measurement": "Recovery of C. difficile spores", "setting": "[5]; Example 3A: diluent added after reaction solutions, 1 min and 30 min exposure", "result": "90-110 % of controls"}, {"measurement": "Recovery of C. difficile spores", "setting": "[5]; Example 3B: diluent added to cupules before reaction solutions, 1 min and 30 min", "result": "95-110 % of controls"}]}]}
